In publication PMC2810227, “3-O-Methylfunicone, a Selective Inhibitor of Mammalian Y-Family DNA Polymerases from an Australian Sea Salt Fungal Strain” (Marine Drugs, 2009):

Columns and labels:
[1] = target: T1, pol α from calf thymus (Bos taurus, UniProt A0AAA9TD94); assay: DNA polymerase assay, pol α; format: biochemical; settings: 100 μM
T1 construct: Pol α was purified from calf thymus; from tissue; host or cells: calf thymus
From the text: (§1) Pol α was purified from calf thymus by immuno-affinity column chromatography, as described by Tamai et al.. Recombinant rat pol β was purified from E. coli JMpβ5, as described by Date et al.. The human pol γ catalytic gene was cloned into pFastBac. Histidine-tagged enzyme was expressed using the BAC-TO-BAC HT Baculovirus Expression System according to the supplier’s manual (Life Technologies, MD, USA) and purified using ProBoundresin (Invitrogen Japan, Tokyo, Japan). Human pols δ and ɛ were purified by nuclear fractionation of human peripheral blood cancer cells (Molt-4) using the second subunit of pols δ and ɛ-conjugated affinity column chromatography, respectively. A truncated form of human pol η (residues 1–511) tagged with His6 at its C-terminal was expressed in E. coli cells and purified as described by Kusumoto et al.. A recombinant mouse pol ι tagged with His6 at its C-terminal was expressed and purified by Ni-NTA column chromatography as described elsewhere (Masutani et al., in preparation). […]
(§2) The compounds were dissolved in distilled dimethyl sulfoxide (DMSO) at various concentrations and sonicated for 30 sec. […] Activity without the inhibitor was considered 100%, and the remaining activity at each concentration of the inhibitor was determined relative to this value. […]

[2] = target: T2, calf thymus TdT (Bos taurus, UniProt P06526); assay: DNA polymerase assay, TdT; format: biochemical; settings: 100 μM
T2 construct: purchased Stratagene Cloning Systems (La Jolla, CA, USA)
From the text: as §1, §2

[3] = target: T3, fruit fly pol α (Drosophila melanogaster, UniProt P26019); assay: DNA polymerase assay, insect pol α; format: biochemical; settings: 100 μM
T3 construct: purified from early embryos of Drosophila melanogaster; from tissue; host or cells: early embryos of Drosophila melanogaster
From the text: as §1, §2

[4] = target: T4, T4 pol (Enterobacteria phage T4, UniProt P04415); assay: DNA polymerase assay, T4 pol; format: biochemical; settings: 100 μM
T4 construct: purchased Takara Bio (Tokyo, Japan)
From the text: as §1, §2

[5] = target: mouse inosine 5′-monophosphate (IMP) dehydrogenase (type II) (Mus musculus, UniProt P24547); assay: IMP dehydrogenase assay; format: biochemical; settings: 100 μM
Method: The activities of calf primase of pol α, human telomerase, T7 RNA polymerase, mouse IMP dehydrogenase, human DNA topoisomerases I and II, T4 polynucleotide kinase and bovine DNase I were measured in standard assays according to the manufacturer’s specifications, as described by Tamiya-Koizumi et al., Oda et al., Nakayama et al., Mizushina et al., Ishimaru et al., Soltis et al. and Lu et al., respectively.

[6] = system: HCT116 (colon carcinoma cells); assay: Cancer cell growth, MTT assay, HCT116; format: cell-based, human
Method: Figure 5. (A) Human cancer cell growth inhibition dose-response curves of 3-O-methyl-funicone (1). Various concentrations (0 to 150 μM) of compound 1 were incubated with human colon carcinoma (HCT116) cells (circle) and human cervix carcinoma (HeLa) cells (square) for 24 h. Rate of cell growth was determined by MTT assay as described in the Experimental section. Data are shown as the means ± SEM of five independent experiments. (B) Clonogenic survival of UV-treated HeLa cells by compound 1. Various concentrations (0 to 100 μM) of compound 1 were incubated with 10 J/m^2 UV-treated (closed circle) or untreated (open circle) HeLa cells. After 7 days, the number of colonies in each treatment group was counted. Values are the means ± SEM of two independent experiments.
Human colon carcinoma cell line, HCT116, was a kind gift from Dr. Bert Vogelstein (Johns Hopkins University, Baltimore, […], USA). Human cervix carcinoma cell line, HeLa, was obtained from Health Science Research Resources Bank (Osaka, Japan). The cells were maintained in McCoy’s 5A medium supplemented with 10% FBS, sodium bicarbonate (2 g/L) and streptomycin (100 μg/mL). The cells were cultured at 37 °C in standard medium in a humidified atmosphere of 5% CO2-95% air. […] After incubation for 24 h, the survival rate was determined by MTT (3-(4,5-dimethylthiazol-2-yl)-2,5-diphenyl tetrazolium bromide) assay.

[7] = system: HUVEC (human umbilical vein endothelial cells); assay: Proliferation and growth of normal cells, HUVEC; format: cell-based; settings: data not shown

T2 sequence (P06526 whole entry): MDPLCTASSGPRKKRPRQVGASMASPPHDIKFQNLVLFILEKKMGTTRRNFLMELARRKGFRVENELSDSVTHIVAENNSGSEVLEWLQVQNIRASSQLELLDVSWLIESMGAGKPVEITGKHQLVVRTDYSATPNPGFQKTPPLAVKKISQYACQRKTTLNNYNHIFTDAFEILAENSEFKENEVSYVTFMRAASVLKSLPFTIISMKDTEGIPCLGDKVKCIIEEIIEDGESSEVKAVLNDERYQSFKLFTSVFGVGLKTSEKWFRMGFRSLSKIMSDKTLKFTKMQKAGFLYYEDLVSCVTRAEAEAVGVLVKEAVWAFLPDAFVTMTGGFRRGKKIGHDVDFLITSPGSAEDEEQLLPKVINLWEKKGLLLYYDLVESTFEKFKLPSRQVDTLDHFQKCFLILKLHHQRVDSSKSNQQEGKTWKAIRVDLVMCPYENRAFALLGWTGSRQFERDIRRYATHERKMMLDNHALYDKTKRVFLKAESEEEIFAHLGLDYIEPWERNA
T1 sequence (A0AAA9TD94 1-1441): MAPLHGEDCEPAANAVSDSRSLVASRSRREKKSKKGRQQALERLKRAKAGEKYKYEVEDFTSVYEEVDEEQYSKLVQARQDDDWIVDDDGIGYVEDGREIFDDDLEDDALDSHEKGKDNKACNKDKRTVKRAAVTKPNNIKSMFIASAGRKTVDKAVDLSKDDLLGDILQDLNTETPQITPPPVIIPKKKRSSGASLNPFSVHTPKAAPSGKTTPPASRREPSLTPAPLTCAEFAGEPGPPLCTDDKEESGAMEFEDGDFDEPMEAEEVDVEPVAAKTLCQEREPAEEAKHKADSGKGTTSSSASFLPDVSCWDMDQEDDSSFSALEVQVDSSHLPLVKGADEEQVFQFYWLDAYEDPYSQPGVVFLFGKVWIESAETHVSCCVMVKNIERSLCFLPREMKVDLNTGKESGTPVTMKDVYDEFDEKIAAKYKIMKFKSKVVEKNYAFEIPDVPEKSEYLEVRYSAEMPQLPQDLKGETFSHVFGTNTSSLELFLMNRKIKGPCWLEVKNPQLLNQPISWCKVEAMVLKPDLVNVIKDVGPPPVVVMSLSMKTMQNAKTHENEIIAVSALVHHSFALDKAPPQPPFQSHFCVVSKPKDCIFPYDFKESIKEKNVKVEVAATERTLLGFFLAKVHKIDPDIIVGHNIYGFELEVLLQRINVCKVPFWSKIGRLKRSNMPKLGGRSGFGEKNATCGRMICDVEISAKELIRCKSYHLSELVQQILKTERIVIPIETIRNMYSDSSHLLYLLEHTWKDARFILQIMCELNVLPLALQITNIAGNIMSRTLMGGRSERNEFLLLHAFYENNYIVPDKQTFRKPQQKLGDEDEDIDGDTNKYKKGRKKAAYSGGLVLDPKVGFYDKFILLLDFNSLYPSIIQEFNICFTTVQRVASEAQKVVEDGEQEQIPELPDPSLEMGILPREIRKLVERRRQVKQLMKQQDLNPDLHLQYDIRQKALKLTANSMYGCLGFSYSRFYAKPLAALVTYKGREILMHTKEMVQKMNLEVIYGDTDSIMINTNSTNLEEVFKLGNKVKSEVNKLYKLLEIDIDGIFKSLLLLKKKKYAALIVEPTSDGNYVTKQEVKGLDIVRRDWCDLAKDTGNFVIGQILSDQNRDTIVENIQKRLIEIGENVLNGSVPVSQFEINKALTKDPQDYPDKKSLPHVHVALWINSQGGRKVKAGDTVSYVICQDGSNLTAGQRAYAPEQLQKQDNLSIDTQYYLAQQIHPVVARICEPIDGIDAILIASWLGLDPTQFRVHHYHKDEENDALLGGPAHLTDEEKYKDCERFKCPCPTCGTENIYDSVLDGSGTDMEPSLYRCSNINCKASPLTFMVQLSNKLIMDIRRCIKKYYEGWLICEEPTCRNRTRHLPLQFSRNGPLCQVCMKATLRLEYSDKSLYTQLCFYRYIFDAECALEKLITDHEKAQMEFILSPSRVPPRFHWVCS
T4 sequence (P04415 whole entry): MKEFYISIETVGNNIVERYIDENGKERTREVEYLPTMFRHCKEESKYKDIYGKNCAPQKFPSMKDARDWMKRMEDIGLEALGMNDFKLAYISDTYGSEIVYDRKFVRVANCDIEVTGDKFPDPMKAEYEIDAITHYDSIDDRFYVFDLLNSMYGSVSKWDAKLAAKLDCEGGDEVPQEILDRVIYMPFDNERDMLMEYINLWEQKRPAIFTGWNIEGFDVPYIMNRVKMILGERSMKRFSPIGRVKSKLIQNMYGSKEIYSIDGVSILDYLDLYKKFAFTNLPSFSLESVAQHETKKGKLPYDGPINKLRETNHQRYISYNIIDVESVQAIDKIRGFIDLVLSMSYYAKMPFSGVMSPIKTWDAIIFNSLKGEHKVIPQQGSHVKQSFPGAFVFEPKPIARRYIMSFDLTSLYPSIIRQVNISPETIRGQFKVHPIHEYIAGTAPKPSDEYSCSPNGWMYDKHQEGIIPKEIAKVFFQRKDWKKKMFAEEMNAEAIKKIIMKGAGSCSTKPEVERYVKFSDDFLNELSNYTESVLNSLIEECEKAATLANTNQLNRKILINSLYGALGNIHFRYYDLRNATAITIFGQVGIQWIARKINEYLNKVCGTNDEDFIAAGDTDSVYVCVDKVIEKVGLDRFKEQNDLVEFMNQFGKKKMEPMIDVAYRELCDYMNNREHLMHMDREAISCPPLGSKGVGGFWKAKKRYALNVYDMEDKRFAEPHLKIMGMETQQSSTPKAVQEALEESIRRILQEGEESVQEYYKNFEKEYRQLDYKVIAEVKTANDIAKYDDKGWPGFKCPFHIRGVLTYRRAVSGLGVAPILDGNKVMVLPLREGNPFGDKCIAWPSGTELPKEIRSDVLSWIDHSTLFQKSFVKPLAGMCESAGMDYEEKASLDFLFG
Sequence of mouse inosine 5′-monophosphate (IMP) dehydrogenase (type II) (P24547 whole entry): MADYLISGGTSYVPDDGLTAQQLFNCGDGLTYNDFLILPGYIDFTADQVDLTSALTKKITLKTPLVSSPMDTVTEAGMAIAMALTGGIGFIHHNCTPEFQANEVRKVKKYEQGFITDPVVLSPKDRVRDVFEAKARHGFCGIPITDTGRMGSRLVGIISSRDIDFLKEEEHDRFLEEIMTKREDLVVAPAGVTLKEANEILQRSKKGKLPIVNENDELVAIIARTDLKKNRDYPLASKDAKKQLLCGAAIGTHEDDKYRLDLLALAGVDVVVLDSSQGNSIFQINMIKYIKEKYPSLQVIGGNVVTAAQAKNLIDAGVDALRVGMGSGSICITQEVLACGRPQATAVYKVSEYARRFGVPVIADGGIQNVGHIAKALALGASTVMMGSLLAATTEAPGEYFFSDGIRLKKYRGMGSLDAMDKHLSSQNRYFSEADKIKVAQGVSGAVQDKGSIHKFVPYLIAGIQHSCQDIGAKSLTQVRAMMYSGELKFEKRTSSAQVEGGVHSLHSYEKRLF

Which results are given for `C/C=C/c1occ(C(=O)c2c(OC)cc(OC)cc2C(=O)OC)c(=O)c1OC` [compound 1, 3-O-methylfunicone]?
effect on pol α activity [1]: hardly influenced; effect on TdT activity [2]: hardly influenced; effect on fruit fly pol α activity [3]: hardly influenced; effect on T4 pol activity [4]: no effect; effect on mouse IMP dehydrogenase (type II) activity [5]: did not influence; LD50, cell growth ([6]; HCT116, 24 h, MTT assay): 63.8 µM; cell growth inhibition dose relative to the enzyme inhibitory concentration ([6]; LD50 (HCT116 and HeLa) versus IC50 for Y-family pols): 1.3 to 5.1 fold; effect on cell proliferation and growth [7]: did not influence
